The record followed here is ChEMBL document CHEMBL1131045, “Indole-2-carboxamide inhibitors of human liver glycogen phosphorylase” (J Med Chem, 1998).

pIC50: −log10 of the molar value. Where “and” joins values, the source holds several entries; their conditions need not be identical. Equal entries are not always repeated. A value given as a limit tells only on which side of the number the result lay.

Experiment [1] can be described thus: Inhibition of forskolin-stimulated glycogenolysis in SK-HEP-1 cells. The format is functional, cell-based. To be noted: Homo sapiens, SK-HEP1.
Experiment [2] has as its system Mus musculus. In words: Hypoglycemic responses resulting from oral dosing in diabetic ob/ob mice(inactive dose), po. The format is functional.
The target in experiment [3] is T1, Glycogen phosphorylase, liver form (Homo sapiens, UniProt P06737).
T1 sequence (P06737 whole entry): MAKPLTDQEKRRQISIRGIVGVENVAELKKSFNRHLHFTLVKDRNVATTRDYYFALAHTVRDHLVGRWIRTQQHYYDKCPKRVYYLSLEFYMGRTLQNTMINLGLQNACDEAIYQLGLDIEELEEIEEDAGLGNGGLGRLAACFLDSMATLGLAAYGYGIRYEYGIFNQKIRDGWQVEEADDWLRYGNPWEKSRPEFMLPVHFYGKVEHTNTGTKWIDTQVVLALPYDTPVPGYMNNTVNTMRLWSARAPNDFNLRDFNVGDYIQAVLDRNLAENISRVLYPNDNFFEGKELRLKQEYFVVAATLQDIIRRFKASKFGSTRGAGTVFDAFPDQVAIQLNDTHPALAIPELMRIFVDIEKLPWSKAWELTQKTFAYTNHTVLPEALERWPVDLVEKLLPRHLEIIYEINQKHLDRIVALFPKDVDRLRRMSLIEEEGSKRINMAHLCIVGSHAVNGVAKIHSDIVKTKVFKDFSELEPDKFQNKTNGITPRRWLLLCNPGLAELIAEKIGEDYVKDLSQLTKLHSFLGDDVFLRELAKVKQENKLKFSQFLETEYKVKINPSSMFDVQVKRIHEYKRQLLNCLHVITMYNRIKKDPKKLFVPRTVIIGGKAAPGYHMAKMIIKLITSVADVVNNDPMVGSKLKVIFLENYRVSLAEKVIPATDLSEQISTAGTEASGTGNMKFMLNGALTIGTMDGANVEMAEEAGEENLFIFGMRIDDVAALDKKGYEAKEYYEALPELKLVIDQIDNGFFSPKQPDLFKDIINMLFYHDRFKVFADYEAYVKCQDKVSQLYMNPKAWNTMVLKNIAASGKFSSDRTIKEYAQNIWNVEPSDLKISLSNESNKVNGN
As to the kind of experiment: In vitro inhibitory activity against recombinant human liver glycogen phosphorylase a (rHLGPa) catalyzed release of phosphate from glucose-1-phosphate.

Experiment [4] deals with Mus musculus. In words: Hypoglycemic responses resulting from oral dosing in diabetic ob/ob mice(active dose), po. The format is functional.
For experiment [5], the species on record is Mus musculus. As to the kind of experiment: Percent decrease in drug -treated plasma glucose concentration, relative to vehicle treated control diabetic ob/ob mice. The format is functional.

Turning to `COC(=O)[C@H](Cc1ccccc1)NC(=O)c1cc2cc(Cl)ccc2[nH]1`, the pIC50 in experiment [1] was less than 4.52; in experiment [3], 6.85. Also, the Dose in the experiment on Mus musculus [2] came to 50 mg/kg.
In the case of `COc1ccc2[nH]c(C(=O)N[C@@H](Cc3ccccc3)C(=O)N(C)C)cc2c1`, in experiment [3], the pIC50 is 5.33.
As to `CN(C)C(=O)[C@H](O)[C@H](CC1CCCCC1)NC(=O)c1cc2cc(Cl)ccc2[nH]1`, in experiment [3], the pIC50 was 5.19.
As to `CN(C)C(=O)[C@@H](Cc1ccccc1)NC(=O)c1cc2cc(Cl)ccc2[nH]1`, the pIC50 in experiment [1] is 4.92; in experiment [3], 6.59.
As for `CN(C)C(=O)[C@@H](O)[C@@H](Cc1ccccc1)NC(=O)c1cc2cc(Cl)ccc2[nH]1`, in experiment [3], the negative logarithm of the IC50 (pIC50) was 5.74.
For the compound `O=C(N[C@@H](Cc1ccccc1)C(=O)N1CCC(O)CC1)c1cc2cc(Cl)ccc2[nH]1`, the results for the pIC50 in experiment [1] and in experiment [3] were 5.29 and 6.59, respectively. Moreover, the results for the Dose in the experiment with Mus musculus [2] and in the experiment with Mus musculus [4] were 10 mg/kg and 25 mg/kg, respectively. The same compound gave a Glucose in the experiment listed under Mus musculus [5] of 36%.
Regarding `O=C(N[C@@H](Cc1ccccc1)[C@@H](O)C(=O)O)c1cc2cc(Cl)ccc2[nH]1`, the pIC50 in experiment [1] was less than 4.52; in experiment [3] it was 6.48.
In the case of `CN(C)C(=O)[C@H](Cc1ccccc1)NC(=O)c1cc2cc(Br)ccc2[nH]1`, the pIC50 in experiment [1] was 5.85; in experiment [3], 6.96. Further, the Dose with Mus musculus [2] stood at 50 mg/kg.
`CN(C)C(=O)[C@H](O)[C@H](Cc1ccccc1)NC(=O)c1cc2cc(Cl)ccc2[nH]1`: the pIC50 in experiment [1] is 5.82; in experiment [3], 6.96. The Dose was 15 mg/kg in the experiment on Mus musculus [2]; 50 mg/kg and 25 mg/kg in the experiment with Mus musculus [4]. For the same compound, the Glucose in the experiment filed under Mus musculus [5] is 40% and 32%.
Take `CNC(=O)[C@H](O)[C@H](Cc1ccccc1)NC(=O)c1cc2cc(Cl)ccc2[nH]1`: the pIC50 in experiment [1] was less than 4.52; in experiment [3], 6.17.
Regarding `CN(C)C(=O)[C@H](Cc1ccccc1)NC(=O)c1cc2ccccc2[nH]1`, the pIC50 in experiment [1] was 5.11; in experiment [3] it was 6.40. Further, the Dose was 25 mg/kg in the experiment with Mus musculus [2] and 50 mg/kg in the experiment on Mus musculus [4]. The compound further had a Glucose in the experiment filed under Mus musculus [5] of 40%.
On to `O=C(N[C@@H](Cc1ccccc1)[C@@H](O)CO)c1cc2cc(Cl)ccc2[nH]1`, for which the pIC50 in experiment [3] is 5.17.
In the case of `COC(=O)[C@H](O)[C@H](Cc1ccccc1)NC(=O)c1cc2cc(Cl)ccc2[nH]1`, the figures for the pIC50 in experiment [1] and in experiment [3] were 4.89 and 6.68, respectively. The compound further yielded a Dose in the experiment with Mus musculus [2] of 50 mg/kg.
Consider `NC(=O)[C@H](O)[C@H](Cc1ccccc1)NC(=O)c1cc2cc(Cl)ccc2[nH]1`, for which the pIC50 in experiment [3] was 5.77.
Take `CN(C)C(=O)[C@H](Cc1ccccc1)NC(=O)c1cc2cc(F)ccc2[nH]1`: the pIC50 is 5.64 in experiment [1] and 6.37 in experiment [3]. The same compound returned a Dose in the experiment on Mus musculus [2] of 50 mg/kg.
`CN(C)C(=O)[C@H](O)[C@H](Cc1ccccc1)NC(=O)c1cc2cc(Br)ccc2[nH]1`: the figures for the pIC50 in experiment [1] and in experiment [3] were 5.48 and 7.01, respectively. The compound further came in with a Dose with Mus musculus [2] of 50 mg/kg.
On to `CN(C)C(=O)[C@H](Cc1ccccc1)NC(=O)c1cc2cc(Cl)ccc2[nH]1`, for which the pIC50 in experiment [1] was 5.72; in experiment [3], 7.09.
The corresponding values for `O=C(N[C@@H](Cc1ccccc1)C(=O)O)c1cc2cc(Cl)ccc2[nH]1` are less than 4.52 and 5.77.
As for `CN(C)C(=O)[C@@H](O)[C@H](Cc1ccccc1)NC(=O)c1cc2cc(Cl)ccc2[nH]1`, the Dose in the experiment on Mus musculus [2] is 50 mg/kg. For the same compound, the pIC50 in experiment [3] was 5.06.
As to `O=C(N[C@H](CO)Cc1ccccc1)c1cc2cc(Cl)ccc2[nH]1`, the pIC50 in experiment [3] is less than 5.00.
Still for that read-out and setting: with `CN(C)C(=O)[C@H](O)[C@@H](Cc1ccccc1)NC(=O)c1cc2cc(Cl)ccc2[nH]1` the figure was 5.77.
As for `CNC(=O)[C@@H](Cc1ccccc1)NC(=O)c1cc2cc(Cl)ccc2[nH]1`, the pIC50 is 4.92 in experiment [1] and 6.66 in experiment [3]. Besides, the Dose worked out at 25 mg/kg in the experiment on Mus musculus [2] and 50 mg/kg in the experiment with Mus musculus [4]. The compound further had a Glucose in the experiment listed under Mus musculus [5] of 39%.
For `CNC(=O)[C@H](Cc1ccccc1)NC(=O)c1cc2cc(Cl)ccc2[nH]1`, in that order: 5.28, 6.96, 25 mg/kg, 50 mg/kg and 49%.
Turning to `CN(C)C(=O)[C@H](O)[C@H](Cc1ccccc1)NC(=O)c1cc2ccccc2[nH]1`, the pIC50 in experiment [1] is less than 4.52; in experiment [3], 6.36.
In the case of `CN(C)C(=O)[C@H](O)[C@H](Cc1ccccc1)NC(=O)c1cc2cc(F)ccc2[nH]1`, the values for the pIC50 in experiment [1] and in experiment [3] were 5.21 and 6.77, respectively. For the same compound, the results for the Dose in the experiment with Mus musculus [2] and with Mus musculus [4] were 10 mg/kg and 25 mg/kg, respectively. In addition, the Glucose in the experiment filed under Mus musculus [5] is recorded as 33%.
Consider `O=C(N[C@@H](Cc1ccc(F)cc1)C(=O)N1CCC(O)CC1)c1cc2cc(Cl)ccc2[nH]1`, for which the pIC50 in experiment [1] was 5.72. The compound further registered a Dose with Mus musculus [2] of 5 mg/kg. The Glucose in the experiment listed under Mus musculus [5] is 44% and 45% and 26% and 24%.
